Laboratory results as given in patent US12129255B2, “Pyrido [2,3-d]pyrimidine derivatives as inhibitors of human immunodeficiency virus replication” (VIIV HEALTHCARE UK (No. 5) LIMITED, priority 2019, dated 2024).

Legend:
[1] = Subcutaneous pharmacokinetics in rat; assay type: in vivo, Wistar Han Rats
Experimental: Drug was formulated in 1% Kolliphor P188/1% PEG3350/3.5% Mannitol/94.5% Water and then administered to Wistar Han Rats as a subcutaneous injection at a dose of 20 mg/kg. Blood samples were collected at 0.167, 0.25, 0.5, 0.75, 1, 2, 3, 5, 7, 24, 48, 72, 96 h, and then every 3 days for up to 122 days. Blood samples were collected into K3EDTA tubes and centrifuged at 1500 to 2000×g to obtain plasma. Plasma samples were stored at −20° C. until analysis by LC-MS/MS.

[2] = IV pharmacokinetics in mouse; assay type: in vivo, male CD1 mice; conditions: male, CD1, plasma, IV 1 mg/kg
Experimental: (§1) PK was investigated in male CD1 mice, Wistar Han Rats, Cynomolgus monkeys, and Beagle Dogs. Two groups of animals (N=3 per group) received test compound either as an intravenous (IV) dose (1 mg/kg) or by oral gavage (5 mg/kg solution and suspension). Drug was formulated in 90% PEG 400, 10% ethanol for IV administration and in 90% PEG400, 5% ethanol for PO administration. Blood samples were collected at 0.167, 0.25, 0.5, 0.75, 1, 2, 3, 5, 7, 24, 48, 72 and 96 h post dose for IV; 0.25, 0.5, 0.75, 1, 2, 3, 5, 7, 24, 48, 72 and 96 h post dose for oral. Blood samples were collected into K3EDTA tubes and centrifuged at 1500 to 2000×g to obtain plasma. Plasma samples were stored at −20° C. until analysis by LC-MS/MS. All in vivo samples were injected on an Exion LC 4500 Triple Quad™ LC-MS/MS system where the column was maintained at 60° C. and the flow rate was 0.6 mL/min. All LC-MS/MS analysis parameters are captured electronically in the raw data files. Rat IV, Dog IV, Monkey IV, and Monkey PO PK samples were analyzed by General Analysis Method A. Mouse IV, Mouse PO, and Dog PO PK samples were analyzed by General Analysis Method B. Rat PO samples were analyzed by General Analysis Method C.
(§2) The PK parameters were obtained by non-compartmental analysis of plasma concentration vs time data (Phoenix WinNonlin v8.1). The peak concentration (Cmax) and time for Cmax (Tmax) were recorded directly from experimental observations. The area under the curve from time zero to the last sampling time [AUC0-T] and the area under the curve from time zero to infinity [AUCINF] were calculated using the linear-log trapezoidal rule. The total plasma clearance (CLTp), steady-state volume of distribution (VSS), apparent elimination half-life (T-HALF), and mean residence time (MRT) were estimated after IV administration. Estimations of AUC and T-HALF were made using a minimum of three timepoints with quantifiable concentrations. The absolute oral bioavailability (F) was estimated as the ratio of dose-normalized AUC values following oral and IV doses.

[3] = Metabolism in liver microsomes (human); assay type: in vitro ADME; conditions: pH 7.4, 1 μM compound, 1 mg/mL microsomes, NADPH, read-out: Human liver microsome T1/2
Experimental: (§3) Liver microsomes from human, rat dog and monkey were thawed and diluted to a final concentration of 1 mg/mL in 100 mM potassium phosphate buffer (pH 7.4). Test compounds and controls were prepared at 100× final concentration of 1 μM in 1:1 acetonitrile:water (v/v) and aliquoted into microsomal mixture. The mixture was preincubated at 37° C. in a shaking water bath for 10 minutes. The incubations were performed in duplicate. Three controls were included in the incubations; warfarin, phenacetin, and verapamil. After the preincubation, the reaction was initiated with NADPH at a final concentration of 1 mM. At 0, 5, 15, 30, 45 and 60 minutes, 25 μL of sample was removed and quenched with 300 μL of acetonitrile containing internal standard (Telmisartan). The samples were vortexed for 5 minutes at 1200 rpm and then centrifuged at 4000 rpm for 10 min. A 100 μL aliquot of supernatant was diluted three-fold with water and injected on an Exion LC 4500 Triple Quad LC-MS/MS system. Results were reported as a percentage of parent remaining and was calculated from peak area ratios of test compound remaining after at each time point and compared to time zero incubation.

[4] = IV pharmacokinetics in monkey; assay type: in vivo, Cynomolgus monkeys
Experimental: as §1, §2

[5] = Metabolism in liver microsomes (monkey); assay type: in vitro ADME
Experimental: as §3

[6] = IV pharmacokinetics in rat; assay type: in vivo, Wistar Han Rats; conditions: Wistar Han, plasma, IV 1 mg/kg
Experimental: as §1, §2

[7] = Metabolism in liver microsomes (rat); assay type: in vitro ADME; conditions: pH 7.4, 1 μM compound, 1 mg/mL microsomes, NADPH, read-out: Rat liver microsome T1/2
Experimental: as §3

[8] = Allometric scaling of pre-clinical PK parameters to predict dose in human
Experimental: Human dose predictions were performed using Phoenix WinNonlin (v 8.0) software and Microsoft Excel using the ModelRisk add-in for population modeling. Human estimates for each compound's CLTp were obtained based on average allometric scaling of mouse, rat, monkey and dog IV data (body weight scaling factor of 0.75) and an average (body weight scaling factor of 1.0) from all species for VSS. Human IV parameters (Vc, Ka, K12, K21, Kel) were determined using Mean Residence Time (MRT) scaling from preclinical species (mouse, rat, dog and cyno) using the human VSS and CLTp estimates. Absorption (Ka) was determined by deconvolution (PO) or from the half-life (SC) in preclinical species (Ka=LN(2)/t1/2). The predicted human dose for PO and SC is calculated with consideration of human variability and is calculated to cover 95% of the human population.

[9] = cynomolgus monkey, plasma, Monkey, IV 1 mg/kg

Cn1nc(NS(C)(=O)=O)c2c(Cl)ccc(-n3c([C@H](Cc4cc(F)cc(F)c4)NC(=O)Cn4nc(C(F)F)c5c4C(F)(F)[C@@H]4C[C@H]54)nc4nc(OCCC(F)(F)F)ccc4c3=O)c21 (atropisomer, axis not shown; (P)) [Example 1, N—((S)-1-((3P)-3-(4-chloro-1-methyl-3-(methylsulfonamido)-1H-indazol-7-yl)-4-oxo-7-(3,3,3-trifluoropropoxy)-3,4-dihydropyrido[2,3-d]pyrimidin-2-yl)-2-(3,5-difluorophenyl)ethyl)-2-((3bS,4aR)-3-(difluoromethyl)-5,5-difluoro-3b,4,4a,5-tetrahydro-1H-cyclopropa[3,4]cyclopenta[1,2-c]pyrazol-1-yl)acetamide]
% of the AUC extrapolated ([1]; SC 20 mg/kg): 2.89% | time drug concentrations were maintained above 7 ng/mL for all animals ([1]; SC 20 mg/kg (FIG. 1)): 73 days | bioavailability ([1]; Wistar Han, plasma, SC 20 mg/kg): 93% | half-life ([1]; Wistar Han, plasma, SC 20 mg/kg, read-out: apparent half-life of compound in plasma (converted)): 312 h | clearance [2]: 0.5 mL/min/kg | half-life [2]: 7.6 h | Vd ([2]; read-out: Vss): 0.24 L/kg | half-life at 1 μM [3]: > 2 h | clearance [4, 9]: 8.5 mL/min/kg | half-life [4, 9]: 3 h | Vd ([4]; cynomolgus monkey, plasma, Monkey, IV 1 mg/kg, read-out: Vss): 1.18 L/kg | clearance improved relative to Example 60.2 ([4]; monkey, IV): 2.6 fold | half-life in circulation higher than Example 60.2 ([4]; monkey, IV): two-fold | stability in monkey liver microsomes relative to Example 60.2 ([5]; Example 1 versus Example 60.2): at least two times more stable | half-life at 1 μM ([5]; monkey, liver microsomes, pH 7.4, 1 μM compound, 1 mg/mL microsomes, NADPH, read-out: Monkey liver microsome T1/2): > 2 h | clearance [6]: 2.64 mL/min/kg | half-life [6]: 17.4 h | Vd ([6]; read-out: Vss): 3.34 L/kg | half-life at 1 μM [7]: > 2 h | predicted human QD PO dose ([8]; once-daily oral, allometric scaling, to cover 95% of the human population): less than 10 mg | predicted Q1M SC dose in human lower than for Example 60.2 ([8]; once-monthly subcutaneous, from SC rat PK and predicted human clearance): 15 fold | predicted once-daily oral dose in human lower than for Example 60.2 ([8]; to maintain efficacious plasma concentration): 7 fold
